pEC50: −log10 of the molar value. Read-outs that look alike come from different tables or passages of the source.
Key:
[1] = Uninfected HeLa-ACE2 24 h live/dead cytotoxicity counter screen; assay type: cell-based, human; settings: human, uninfected HeLa-ACE2 cells
HeLa-ACE2 cells [2] = test: as above; assay type: cell-based, human; settings: for HeLa-ACE2 uninfected cytotoxicity Sinf Average (%): Sinf average of the curves; for HeLa-ACE2 uninfected cytotoxicity Sinf Average: curve-fit effect at infinite concentration
SARS-CoV-2 [3] = test: microbe, parasite or virus in culture; assay type: cell-based; settings: for Emax: Severe acute respiratory syndrome coronavirus 2, HeLa-ACE2, 24 h, curve-fit effect at infinite concentration, average, read-out: HeLa-ACE2 CoV-2 Sinf Average
Calu-3 cells [4] = test: cells; settings: Homo sapiens; for Emax: Calu-3, 48 h; for EC50: Calu-3, read-out: Calu-3 cell count EC50 GeoMean (µM), geometric mean of replicates
HeLa-ACE2 cells [5] = test: cells; settings: Homo sapiens; for EC50: HeLa-ACE2, read-out: HeLa-ACE2 cell count EC50 GeoMean (µM), geometric mean of replicates; for Emax: HeLa-ACE2, 24 h, read-out: HeLa-ACE2 cell count Sinf Average
SARS-CoV-2 [6] = test: microbe, parasite or virus in culture; assay type: cell-based; settings: for Emax: Severe acute respiratory syndrome coronavirus 2, Calu-3, 48 h
Calu-3 cells [7] = tested on: Calu-3 cells
in vitro = settings: human
SARS-CoV-2 [8] = test: microbe, parasite or virus in culture; assay type: cell-based; settings: HeLa-ACE2
[9] = geometric mean of replicates, read-out: HeLa-ACE2 uninfected cytotoxicity CC50 GeoMean
[10] = Severe acute respiratory syndrome coronavirus 2, HeLa-ACE2, geometric mean of replicates, read-out: HeLa-ACE2 CoV-2 EC50 GeoMean
[11] = read-out: Calu-3 cell count Sinf Average (%)
[12] = Sinf average of the curves, read-out: Calu-3 CoV-2 Sinf Average (%)
[13] = Severe acute respiratory syndrome coronavirus 2, Calu-3, geometric mean of replicates, read-out: Calu-3 CoV-2 EC50 GeoMean
[14] = reconfirmed hits, read-out: HeLa-ACE2 Uninf. cells CC50
[15] = Severe acute respiratory syndrome coronavirus 2, HeLa-ACE2, reconfirmed hits, read-out: HeLa-ACE2 SARS-CoV-2 EC50
[16] = Calu-3 uninfected cytotoxicity CC50 GeoMean (µM)
[17] = Severe acute respiratory syndrome coronavirus 2, Calu-3, reconfirmed hits, read-out: Calu-3 SARS-CoV-2 EC50
[18] = uninfected cells, Fig. 2b group, read-out: HeLa-ACE2 CC50
[19] = unrounded geometric mean, read-out: HeLa-ACE2 uninfected cytotoxicity CC50 GeoMean
[20] = Severe acute respiratory syndrome coronavirus 2, HeLa-ACE2, unrounded geometric mean, read-out: HeLa-ACE2 CoV-2 EC50 GeoMean
[21] = Calu-3 uninfected cytotoxicity CC50 GeoMean, unrounded geometric mean
[22] = read-out: Calu-3 cell count Sinf Average
[23] = Calu-3, read-out: Calu-3 cell count EC50 GeoMean, unrounded geometric mean
[24] = HeLa-ACE2, read-out: HeLa-ACE2 cell count EC50 GeoMean, unrounded geometric mean
[25] = curve-fit effect at infinite concentration, average, read-out: Calu-3 CoV-2 Sinf Average
[26] = Severe acute respiratory syndrome coronavirus 2, Calu-3, unrounded geometric mean, read-out: Calu-3 CoV-2 EC50 GeoMean
[27] = Calu-3 uninfected cytotoxicity CC50 GeoMean

SMILES	CC50 at 24 h [1, 9] [µM]	pEC50 (SARS-CoV-2 [3]; [10])	Emax (Calu-3 cells [4]; [11]) [%]	EC50 (Calu-3 cells [4]) [µM]	EC50 (HeLa-ACE2 cells [5]) [µM]	Emax (SARS-CoV-2 [6]; [12]) [%]	pEC50 (SARS-CoV-2 [6]; [13])	CC50 at 48 h (in vitro; [16]) [µM]	uninfected Calu-3 CC50 [μM] (Calu-3 cells [7])	CC50 at 24 h [1, 19] [µM]	HeLa-ACE2 uninfected cytotoxicity Sinf Average (HeLa-ACE2 cells [2]) [%]	Emax (SARS-CoV-2 [3]) [%]	pEC50 (SARS-CoV-2 [3]; [20])	Emax (Calu-3 cells [4]; [22]) [%]	pEC50 (Calu-3 cells [4]; [23])	pEC50 (HeLa-ACE2 cells [5]; [24])	Emax (SARS-CoV-2 [6]; [25]) [%]	pEC50 (SARS-CoV-2 [6]; [26])	Calu-3 uninfected cytotoxicity Sinf Average (Calu-3 cells [7]; human) [%]	other results
CCCCCC[C@H]1C(=O)O[C@H](C)[C@H](NC(=O)c2cccc(NC=O)c2O)C(=O)O[C@@H](C)[C@@H]1OC(=O)CC(C)C [Antimycin A]	> 39.8	< 5.02	48	0.22	> 9.59	93	> 7.56	–	–	–	–	–	–	–	–	–	–	–	–	HeLa-ACE2 uninfected cytotoxicity Sinf Average (%) (HeLa-ACE2 cells [2]): -100%; Calu-3 uninfected cytotoxicity CC50 GeoMean (Calu-3 cells [7]; human): > 0.6084 µM; uninfected Calu-3 CC50 [μM] (Calu-3 cells [7]; human): > 0.608 ×÷ 246.09 (n=2) μM
N=C(N)c1ccc2cc(OC(=O)c3ccc(CNC(=O)CCCC(=O)O)o3)ccc2c1 [TO-195]	> 39.8	< 5.19	84	1.16	> 9.59	91	6.18	> 29.9	> 29.867 ×÷ 1 (n=3) μM	–	–	–	–	–	–	–	–	–	–	CC50 at 24 h [1, 14]: > 40 µM; pEC50 (SARS-CoV-2 [3]; [15]): < 5.19; CC50 at 48 h (in vitro; Calu-3 Uninf. cells CC50 (µM)): > 30 µM; pEC50 (SARS-CoV-2 [6]; [17]): 6.18; Calu-3 uninfected cytotoxicity Sinf Average (%) (Calu-3 cells [7]; human, 48 h): -100%
C[C@@H]1C[C@@H]([C@H](O)CC2CC(=O)NC(=O)C2)C(=O)[C@@H](C)C1 [Cycloheximide]	–	–	–	–	–	–	–	–	–	1.47	-80	101	6.20	50	6.57	< 5.03	98	6.71	-39	CC50 at 24 h [1, 18]: ≤ 3 µM; CC50 (in vitro; [21]): > 2.43 µM; Emax (HeLa-ACE2 cells [5]): 100%
CNC(=O)n1ccc2cc(Oc3ccnc(NC(=O)c4ccc(C5CCN(CCO)CC5)cc4)c3)c(OCCOC)cc21 [E-7090]	–	–	–	–	–	–	–	–	–	21.2	-100	100	5.58	73	< 5.59	< 5.02	62	6.12	–	CC50 at 48 h (in vitro; [27]): 15 µM; uninfected Calu-3 CC50 (Calu-3 cells [7]): 14.98 ×÷ 1.32 (n=3) μM; Calu-3 uninfected cytotoxicity Sinf Average (Calu-3 cells [7]; human, 48 h): -97%
C[C@]12O[C@H](C[C@]1(O)CO)n1c3ccccc3c3c4c(c5c6ccccc6n2c5c31)CNC4=O [Lestaurtinib]	–	–	–	–	–	–	–	–	–	0.758	-100	99	6.26	100	< 5.33	6.21	91	6.17	-98	CC50 at 24 h [1, 18]: ≤ 3 µM; CC50 (in vitro; [21]): > 20.1 µM; Emax (HeLa-ACE2 cells [5]): 102%
O=c1[nH]ccc2cc(OC3CCNCC3)ccc12 [SAR-407899]	> 38.7	< 5.02	97	2.72	> 9.59	54	< 5.42	> 29.9	> 29.867 ×÷ 1 (n=3) μM	–	–	–	–	–	–	–	–	–	–	HeLa-ACE2 uninfected cytotoxicity Sinf Average (%) (HeLa-ACE2 cells [2]): -100%; Calu-3 uninfected cytotoxicity Sinf Average (%) (Calu-3 cells [7]; human, 48 h): 0%
N=C(N)Nc1ccc(C(=O)Oc2ccc(S(N)(=O)=O)cc2)cc1 [Ono-3307]	> 39.8	< 5.02	99	3.58	> 9.59	96	5.80	> 29.9	> 29.867 ×÷ 1 (n=3) μM	–	–	–	–	–	–	–	–	–	–	CC50 at 24 h [1, 14]: > 40 µM; pEC50 (SARS-CoV-2 [3]; [15]): < 5.02; CC50 at 48 h (in vitro; Calu-3 Uninf. cells CC50 (µM)): > 30 µM; pEC50 (SARS-CoV-2 [6]; [17]): 5.80
CCc1ccc(C2=CC(C)(C)Sc3ccc(C#Cc4ccc(C(=O)O)cc4)cc32)cc1 [AGN-194310]	–	–	–	–	–	–	–	–	–	> 39.8	–	–	–	100	–	–	85	6.22	-100	pEC50 (SARS-CoV-2 [3]; Severe acute respiratory syndrome coronavirus 2, HeLa-ACE2, read-out: HeLa-ACE2 CoV-2 EC50 GeoMean): < 5.02; CC50 (in vitro; [27]): > 29.9 µM; pEC50 (Calu-3 cells [4]; Calu-3, read-out: Calu-3 cell count EC50 GeoMean): < 5.11; pEC50 (HeLa-ACE2 cells [5]; HeLa-ACE2, read-out: HeLa-ACE2 cell count EC50 GeoMean): < 5.02; uninfected Calu-3 CC50 (Calu-3 cells [7]): > 29.867 ×÷ 1 (n=3) μM
C=CC(=O)Nc1cc(Nc2nccc(-c3cn(C)c4ccccc34)n2)c(OC)cc1N(C)CCN(C)C [Osimertinib]	–	–	–	–	–	–	–	–	–	–	–	–	–	–	–	–	–	–	–	SI in Calu-3 (SARS-CoV-2 [6]; CC50/EC50): < 2; EC50 ratio between the standard 24 h and the TOA assay (SARS-CoV-2 [8]): > 8

From publication PMC8175350, “Drug repurposing screens identify chemical entities for the development of COVID-19 interventions” (Nature Communications, 2021)
